Results reported in ChEMBL document CHEMBL4840342, “The spectrum between substrates and inhibitors: Pinpointing the binding mode of dengue protease ligands with modulated basicity and hydrophobicity” (Bioorg Med Chem, 2021).
Residues, ends and D or L forms follow the SMILES beside them. *: point of attachment. NHBn = c1ccc(CN*)cc1; Bz = O=C(c1ccccc1)*; NHiPr = CC(C)N*

Tests used:
[1] = target: Genome polyprotein (dengue virus type 2) (UniProt P29990); assay: Inhibition of Dengue virus 2 NS2B-NS3 protease using Abz-Nle-Lys-Arg-Arg-Ser-Tyr(3-NO2)-NH2 as substrate at 50 uM preincubated with enzyme for 15 mins followed by substrate addition and measured for 15 mins by FRET assay relative to control; settings: time 30.0 min
Genome polyprotein = Genome polyprotein (dengue virus type 2, UniProt P29990); assay: Inhibition of Dengue virus 2 NS2B-NS3 protease using Abz-Nle-Lys-Arg-Arg-Ser-Tyr(3-NO2)-NH2 as substrate preincubated with enzyme for 15 mins followed by substrate addition and measured for 15 mins by FRET assay relative to control

Compound	inhibition [1] [%]	IC50 (Genome polyprotein) [µM]
N=C(N)NCCC[C@H](NC(=O)c1ccccc1)C(=O)N[C@@H](CCCCN)C(=O)N[C@@H](C(=O)NCc1ccc(C(N)=O)cc1)c1ccc(OCc2ccccc2)cc1	103	0.4
N=C(N)NCCC[C@H](NC(=O)c1ccccc1)C(=O)N[C@@H](CCCCN)C(=O)N[C@@H](C(=O)NCc1ccc(CN)cc1)c1ccc(OCc2ccccc2)cc1	99.7	0.3
N=C(N)NCCC[C@H](NC(=O)c1ccccc1)C(=O)N[C@@H](CCCCN)C(=O)N[C@@H](C(=O)N[C@H](C(N)=O)C1CCCCC1)c1ccc(OCc2ccccc2)cc1	95.9	13.7
N=C(N)NCCC[C@H](NC(=O)c1ccccc1)C(=O)N[C@@H](Cc1ccc(N)cc1)C(=O)NCc1ccc(OCc2ccccc2)cc1	69.3	–
NCCCC[C@H](NC(=O)c1ccccc1)C(=O)N[C@H](C(=O)N[C@H](C(N)=O)C1CCCCC1)c1ccc(OCc2ccccc2)cc1	93.1	9.9
N=C(N)NCCC[C@H](NC(=O)c1ccccc1)C(=O)N[C@@H](CCCCN)C(=O)NCc1ccccc1 (Bz-Arg-Lys-NHBn)	41.3	–
NCCCC[C@H](NC(=O)c1ccccc1)C(=O)N[C@@H](Cc1ccc(N)cc1)C(=O)NCc1ccc(OCc2ccccc2)cc1	< 20	–
N=C(N)Nc1ccc(C[C@H](NC(=O)[C@@H](NC(=O)c2ccccc2)c2ccc(OCc3ccccc3)cc2)C(=O)N[C@@H](C(N)=O)c2ccc(OCc3ccccc3)cc2)cc1	101	1.7
N=C(N)NCCC[C@H](NC(=O)c1ccccc1)C(=O)N[C@@H](CCCCN)C(=O)NCCc1ccc(OCc2ccccc2)cc1	63.9	–
CC(C)NC(=O)[C@H](CCCCN)NC(=O)[C@H](CCCNC(=N)N)NC(=O)c1ccccc1 (Bz-Arg-Lys-NHiPr)	28.8	–
N=C(N)NCCC[C@H](NC(=O)c1ccccc1)C(=O)N[C@H](Cc1ccc(N)cc1)C(=O)NCc1ccc(OCc2ccccc2)cc1	29.1	–
NCCCC[C@H](NC(=O)c1ccccc1)C(=O)N[C@H](Cc1ccc(N)cc1)C(=O)NCc1ccc(OCc2ccccc2)cc1	94.5	35.8
NCCCC[C@H](NC(=O)c1ccccc1)C(=O)N[C@@H](C(=O)N[C@H](C(N)=O)C1CCCCC1)c1ccc(OCc2ccccc2)cc1	99.6	9.4
NCCCC[C@H](NC(=O)[C@@H](NC(=O)c1ccccc1)c1ccc(OCc2ccccc2)cc1)C(=O)N[C@@H](C(N)=O)c1ccc(OCc2ccccc2)cc1	98.8	6.6
N=C(N)NCCC[C@H](NC(=O)c1ccccc1)C(=O)N[C@@H](CCCCN)C(=O)Nc1ccc(OCc2ccccc2)cc1	59.8	–
NCCCC[C@H](NC(=O)c1ccccc1)C(=O)N[C@@H](C(=O)N[C@@H](C(N)=O)C1CCCCC1)c1ccc(OCc2ccccc2)cc1	98	7.9
N=C(N)NCCC[C@H](NC(=O)c1ccccc1)C(=O)N[C@@H](CCCCN)C(=O)NCc1ccc(OCc2ccccc2)cc1	63.3	–
CC[C@@H](C)[C@H](NC(=O)[C@H](NC(=O)[C@H](CCCCN)NC(=O)[C@H](CCCNC(=N)N)NC(=O)c1ccccc1)c1ccc(OCc2ccccc2)cc1)C(N)=O	58.1	–
